Where two headings read alike, the source gives them in different places.
Assays:
Format in all cases: in vivo
[1] = system: Corn FAW (Spodoptera frugiperda); conditions: for Percent control (%) A01: A01 = 1 day after first spray; for Percent control (%) A14: A14 = 14 days after 1st spray; for Percent control (%) B03: B03 = 3 days after 2nd spray; for Percent control (%) B07: B07 (after 2nd spray); for Percent control (%) B10: B10 (after 2nd spray); for Percent control (%) B21: B21 (after 2nd spray)
Excerpt: Application method: Two applications (application A and B) within an interval of 14 days. A01=1 day after first spray, A14=14 days after 1st spray, B03=3 days after 2nd spray.

[2] = system: Okra Aphids (Aphis gossypii); conditions: for Percent control (%) of Okra Aphids, Nymphs + Adults, A01: A01 = 1 day after first spray; for Percent control (%) of Okra Aphids, Nymphs + Adults, B03: B03 = 3 days after 2nd spray; for Percent control (%) of Okra Aphids, Nymphs + Adults, B07: B07 (after 2nd spray); for Percent control (%) of Okra Aphids, Nymphs + Adults, B10: B10 (after 2nd spray); for Percent control (%) of Okra Aphids, Nymphs + Adults, C03: C03 = 3 days after third spray; for Percent control (%) of Okra Aphids, Nymphs + Adults, C10: C10 (after third spray)
Excerpt: (§1) In this evaluation, feeding damage & insect population on Okra Leaves before and after sprays is averaged and analyzed for the test of significance. Application method: Three applications (application A, B and C) within an interval of 14 days.

[3] = system: Okra Jassids (Amrasca bigutulla bigutulla); conditions: for Percent control (%) of Okra Jassids, Nymphs + Adults, A01: A01 = 1 day after first spray; for Percent control (%) of Okra Jassids, Nymphs + Adults, A10: A10 (after 1st spray); for Percent control (%) of Okra Jassids, Nymphs + Adults, B03: B03 = 3 days after 2nd spray; for Percent control (%) of Okra Jassids, Nymphs + Adults, B07: B07 (after 2nd spray); for Percent control (%) of Okra Jassids, Nymphs + Adults, B10: B10 (after 2nd spray); for Percent control (%) of Okra Jassids, Nymphs + Adults, B14: B14 (after 2nd spray); for Percent control (%) of Okra Jassids, Nymphs + Adults, C03: C03 = 3 days after third spray; for Percent control (%) of Okra Jassids, Nymphs + Adults, C10: C10 (after third spray)
Excerpt: as §1

[4] = 25% reduced dose of insecticide, gm a.i./ha: OSA 25, CTPR 22.5, Acephate 730, Novaluron 56, Novaluron+Lambda cyhalothrin 67.5, Novaluron+Emamectin 93.5
[5] = doses gm a.i./ha: OSA 25, CTPR 30, Acephate 970, Novaluron 75, Novaluron+Lambda cyhalothrin 90, Novaluron+Emamectin 125
[6] = doses gm a.i./ha: OSA 25, Flonicamid 100, Acephate+Imidacloprid 520, Flonicamid+Fipronil 100+50, Imidacloprid 24.5, Acetamiprid 15
[7] = reduced insecticide dose, gm a.i./ha: OSA 25, Flonicamid (Ulala) 75, Acephate+Imidacloprid 390, Flonicamid+Fipronil 75+37.5, Imidacloprid 18.3, Acetamiprid 11.2
[8] = 25% reduced dose rate, gm a.i./ha: OSA 25, Flonicamid 75, Acephate+Imidacloprid 390, Flonicamid+Fipronil 75+37.5, Imidacloprid 18.3, Acetamiprid 11.2

O=C(NC(=O)c1c(F)cccc1F)Nc1ccc(OC(F)(F)C(F)OC(F)(F)F)c(Cl)c1 (racemic) [Novaluron, (±)-1-[3-chloro-4-(1,1,2-trifluoro-2-trifluoro-methoxyethoxy)phenyl]-3-(2,6-difluorobenzoyl)urea]
Percent control (%) A01 [1, 4]: 59.3%
Percent control (%) A01 [1, 5]: 60.5%
Percent control (%) A14 [1, 4]: 58.7%
Percent control (%) A14 [1, 5]: 72.5%
Percent control (%) B03 [1, 4]: 68.9%
Percent control (%) B03 [1, 5]: 79.9%
Percent control (%) B07 [1, 4]: 70.1%
Percent control (%) B07 [1, 5]: 88.8%
Percent control (%) B10 [1, 4]: 74.6%
Percent control (%) B10 [1, 5]: 88.9%
Percent control (%) B21 [1, 4]: 73.9%
Percent control (%) B21 [1, 5]: 84.7%

O=[N+]([O-])NC1=NCCN1Cc1ccc(Cl)nc1 [Imidacloprid]
Percent control (%) of Okra Aphids, Nymphs + Adults, A01 [2, 6]: 66.9%
Percent control (%) of Okra Aphids, Nymphs + Adults, A01 [2, 7]: 62.7%
Percent control (%) of Okra Aphids, Nymphs + Adults, A10 ([2]; A10 (after 1st spray), doses gm a.i./ha: OSA 25, Flonicamid 100, Acephate+Imidacloprid 520, Flonicamid+Fipronil 100+50, Imidacloprid 24.5, Acetamiprid 15): 82%
Percent control (%) of Okra Aphids, Nymphs + Adults, A14 ([2]; A14 = 14 days after 1st spray, reduced insecticide dose, gm a.i./ha: OSA 25, Flonicamid (Ulala) 75, Acephate+Imidacloprid 390, Flonicamid+Fipronil 75+37.5, Imidacloprid 18.3, Acetamiprid 11.2): 64.3%
Percent control (%) of Okra Aphids, Nymphs + Adults, B03 [2, 6]: 80.7%
Percent control (%) of Okra Aphids, Nymphs + Adults, B03 [2, 7]: 74.4%
Percent control (%) of Okra Aphids, Nymphs + Adults, B07 [2, 6]: 82.7%
Percent control (%) of Okra Aphids, Nymphs + Adults, B07 [2, 7]: 77.2%
Percent control (%) of Okra Aphids, Nymphs + Adults, B10 [2, 6]: 82.2%
Percent control (%) of Okra Aphids, Nymphs + Adults, B10 [2, 7]: 79.1%
Percent control (%) of Okra Aphids, Nymphs + Adults, C03 [2, 6]: 81.3%
Percent control (%) of Okra Aphids, Nymphs + Adults, C03 [2, 7]: 75.4%
Percent control (%) of Okra Aphids, Nymphs + Adults, C10 [2, 6]: 82.6%
Percent control (%) of Okra Aphids, Nymphs + Adults, C10 [2, 7]: 78%
Percent control (%) of Okra Jassids, Nymphs + Adults, A01 [3, 8]: 56%
Percent control (%) of Okra Jassids, Nymphs + Adults, A01 [3, 6]: 59.9%
Percent control (%) of Okra Jassids, Nymphs + Adults, A10 [3, 8]: 59.1%
Percent control (%) of Okra Jassids, Nymphs + Adults, A10 [3, 6]: 64.6%
Percent control (%) of Okra Jassids, Nymphs + Adults, B03 [3, 8]: 61.5%
Percent control (%) of Okra Jassids, Nymphs + Adults, B03 [3, 6]: 68.5%
Percent control (%) of Okra Jassids, Nymphs + Adults, B07 [3, 8]: 62.5%
Percent control (%) of Okra Jassids, Nymphs + Adults, B07 [3, 6]: 71.7%
Percent control (%) of Okra Jassids, Nymphs + Adults, B10 [3, 8]: 63.5%
Percent control (%) of Okra Jassids, Nymphs + Adults, B10 [3, 6]: 70.5%
Percent control (%) of Okra Jassids, Nymphs + Adults, B14 [3, 8]: 62.4%
Percent control (%) of Okra Jassids, Nymphs + Adults, B14 [3, 6]: 66.2%
Percent control (%) of Okra Jassids, Nymphs + Adults, C03 [3, 8]: 64.6%
Percent control (%) of Okra Jassids, Nymphs + Adults, C03 [3, 6]: 68.0%
Percent control (%) of Okra Jassids, Nymphs + Adults, C10 [3, 8]: 66.1%
Percent control (%) of Okra Jassids, Nymphs + Adults, C10 [3, 6]: 73.0%

CNC(=O)c1cc(Cl)cc(C)c1NC(=O)c1cc(Br)nn1-c1ncccc1Cl [CTPR, Chlorantraniliprole]
Percent control (%) A01 [1, 4]: 57.1%
Percent control (%) A01 [1, 5]: 67.6%
Percent control (%) A14 [1, 4]: 66.8%
Percent control (%) A14 [1, 5]: 75.2%
Percent control (%) B03 [1, 4]: 75%
Percent control (%) B03 [1, 5]: 79.9%
Percent control (%) B07 [1, 4]: 77.2%
Percent control (%) B07 [1, 5]: 86.8%
Percent control (%) B10 [1, 4]: 76.2%
Percent control (%) B10 [1, 5]: 88.9%
Percent control (%) B21 [1, 4]: 74.6%
Percent control (%) B21 [1, 5]: 87.0%

COP(=O)(NC(C)=O)SC (stereo not drawn) [Acephate]
Percent control (%) A01 [1, 4]: 46.8%
Percent control (%) A01 [1, 5]: 58.1%
Percent control (%) A14 [1, 4]: 50.3%
Percent control (%) A14 [1, 5]: 69.7%
Percent control (%) B03 [1, 4]: 62.1%
Percent control (%) B03 [1, 5]: 76.4%
Percent control (%) B07 [1, 4]: 63.9%
Percent control (%) B07 [1, 5]: 80.5%
Percent control (%) B10 [1, 4]: 64.1%
Percent control (%) B10 [1, 5]: 83.2%
Percent control (%) B21 [1, 4]: 61.6%
Percent control (%) B21 [1, 5]: 80.3%

Source: patent publication US20220322673A1, “Novel Agrochemical Combinations” (UPL LIMITED, priority 2019, published 2022)
